Measured values taken from PubChem BioAssay AID1745844 (Carcinogenic Potency Database (CPDB), 2022).
Activity calls are given as the source filed them. How the calls were made is not given here.

Test system: rodent lifetime carcinogenesis bioassay, tumor incidence TD50
Experiment: chronic cancer bioassays in animals – CPDB, compiled studies (AID 1745844)

Q: For CN(C)NC(=O)CCC(=O)O, which TD50 (mouse, strain B6C3F1, females, in feed, site: any site (literature study), lesion: several types, types named in the paper, dosed 104 weeks, study length 105 weeks) is on record?
A: Its TD50 is 56400 mg/kg/day (inactive).

Q: What about the TD50 (mouse, strain B6C3F1, females, in feed, site: liver, lesion: hepatocellular adenoma + hepatocellular carcinoma + neoplastic nodule, dosed 104 weeks, study length 105 weeks) of the same compound?
A: The TD50 was 6820 mg/kg/day.

Q: What about the TD50 (mouse, strain B6C3F1, females, in feed, site: lung, lesion: alveolar/bronchiolar adenoma + alveolar/bronchiolar carcinoma, dosed 104 weeks, study length 105 weeks) of the same compound?
A: Its TD50 is 2920 mg/kg/day.

Q: And the TD50 (mouse, strain B6C3F1, males, in feed, site: any site (literature study), lesion: several types, types named in the paper, dosed 104 weeks, study length 105 weeks)?
A: The TD50 was 1500 mg/kg/day.

Q: And the TD50 (mouse, strain B6C3F1, males, in feed, site: liver, lesion: hepatocellular adenoma + hepatocellular carcinoma + neoplastic nodule, dosed 104 weeks, study length 105 weeks)?
A: Its TD50 is 2450 mg/kg/day.

Q: What about the TD50 (mouse, strain B6C3F1, males, in feed, site: liver, lesion: hepatocellular adenoma + hepatocellular carcinoma, dosed 104 weeks, study length 105 weeks) of the same compound?
A: The TD50 was 2450 mg/kg/day.

Q: And the TD50 (mouse, strain B6C3F1, males, in feed, site: liver, lesion: hepatocellular carcinoma, dosed 104 weeks, study length 105 weeks)?
A: The TD50 was 2150 mg/kg/day.

Q: And the TD50 (mouse, strain B6C3F1, males, in feed, site: lung, lesion: alveolar/bronchiolar adenoma + alveolar/bronchiolar carcinoma, dosed 104 weeks, study length 105 weeks)?
A: The TD50 was 3400 mg/kg/day.

Q: What about the TD50 (mouse, strain Swiss albino, females, in drinking water, site: blood vessels, lesion: several types, types named in the paper, dosed 92 weeks, study length 92 weeks) of the same compound?
A: Its TD50 is 1240 mg/kg/day.

Q: What about the TD50 (mouse, strain Swiss albino, females, in drinking water, site: lung, lesion: several types, types named in the paper, dosed 92 weeks, study length 92 weeks) of the same compound?
A: Its TD50 is 1370 mg/kg/day.

Q: And the TD50 (mouse, strain Swiss albino, males, in drinking water, site: blood vessels, lesion: several types, types named in the paper, dosed 81 weeks, study length 81 weeks)?
A: Its TD50 is 880 mg/kg/day.

Q: And the TD50 (mouse, strain Swiss albino, males, in drinking water, site: kidney, lesion: adenoma, dosed 81 weeks, study length 81 weeks)?
A: Its TD50 is 10900 mg/kg/day.

Q: What about the TD50 (mouse, strain Swiss albino, males, in drinking water, site: liver, lesion: hepatoma, dosed 81 weeks, study length 81 weeks) of the same compound?
A: The TD50 was 38800 mg/kg/day (inactive).

Q: And the TD50 (mouse, strain Swiss albino, males, in drinking water, site: lung, lesion: several types, types named in the paper, dosed 81 weeks, study length 81 weeks)?
A: Its TD50 is 1110 mg/kg/day.

Q: And the TD50 (rat, strain Fischer 344, females, in feed, site: any site (literature study), lesion: several types, types named in the paper, dosed 104 weeks, study length 105 weeks)?
A: Its TD50 is 3450 mg/kg/day.

Q: And the TD50 (rat, strain Fischer 344, females, in feed, site: liver, lesion: hepatocellular adenoma + hepatocellular carcinoma + neoplastic nodule, dosed 104 weeks, study length 105 weeks)?
A: The TD50 was 9640 mg/kg/day.

Q: And the TD50 (rat, strain Fischer 344, females, in feed, site: lung, lesion: alveolar/bronchiolar adenoma, dosed 104 weeks, study length 105 weeks)?
A: The TD50 was 4890 mg/kg/day.

Q: And the TD50 (rat, strain Fischer 344, females, in feed, site: uterus + uterus, endometrium, lesion: leiomyosarcoma + adenocarcinoma, NOS, dosed 104 weeks, study length 105 weeks)?
A: Its TD50 is 1840 mg/kg/day.

Q: And the TD50 (rat, strain Fischer 344, females, in feed, site: uterus, endometrium, lesion: adenocarcinoma, NOS, dosed 104 weeks, study length 105 weeks)?
A: Its TD50 is 2500 mg/kg/day.

Q: What about the TD50 (rat, strain Fischer 344, females, in feed, site: uterus, lesion: leiomyosarcoma, dosed 104 weeks, study length 105 weeks) of the same compound?
A: The TD50 was 5270 mg/kg/day.

Q: And the carcinogen call (rat, strain Fischer 344, males, in feed, site: any site (literature study), lesion: several types, types named in the paper, dosed 104 weeks, study length 105 weeks)?
A: The carcinogen call was “negative (inactive)”.
